The text below walks through data of patent publication US20100130613A1, “ADMINISTRATION OF ADAPALENE FOR MODULATING THE EXPRESSION OF CD1d OR IL-10” (GALDERMA RESEARCH & DEVELOPMENT, priority 2007, published 2010).

The target of one assay is T1, RARγ (Homo sapiens, UniProt P13631).
T1 sequence (P13631 1-454): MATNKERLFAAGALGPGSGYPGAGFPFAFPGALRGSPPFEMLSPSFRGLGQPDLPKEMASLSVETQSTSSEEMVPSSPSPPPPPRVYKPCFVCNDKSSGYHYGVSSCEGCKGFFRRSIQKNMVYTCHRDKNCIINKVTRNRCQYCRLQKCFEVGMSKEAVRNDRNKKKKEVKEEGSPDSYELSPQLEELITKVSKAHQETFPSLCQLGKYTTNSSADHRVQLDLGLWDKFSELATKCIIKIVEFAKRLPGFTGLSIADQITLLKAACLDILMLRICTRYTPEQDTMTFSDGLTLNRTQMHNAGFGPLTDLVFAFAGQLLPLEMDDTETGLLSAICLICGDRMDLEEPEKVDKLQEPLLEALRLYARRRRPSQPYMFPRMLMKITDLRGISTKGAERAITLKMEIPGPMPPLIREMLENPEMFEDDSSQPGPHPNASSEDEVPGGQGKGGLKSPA
The note with it: background statement; cited from earlier work.

For another assay, the system named is leukotrienes. The note with it: background statement; cited from earlier work.
Assay [1] deals with CD1d. Nature of the assay: CD1d expression in acneic skin explants, immunohistochemistry. The conditions noted are these: 24 hours, control medium 0.9 (+/−0.2), p=0.034. The class given is cell-based, human. From the text:
(§1) Inflammatory lesions of acne: a skin biopsy (1×1.5 cm) was obtained under local anaesthesia from a superficial inflammatory lesion (papula) on the back in 8 patients suffering from moderate acne and undergoing no topical treatment (for the last two weeks) or general treatment (for the last month, or three months for isotretinoin). The fragments taken were immediately placed in culture.
(§2) Fragments (4 mm in diameter) originating from biopsies of inflammatory skin, considered to be an inflammatory model, and of healthy skin, were incubated at 37° C. in a humid atmosphere and in the presence of 5% CO2 for 24 hours in KGM culture medium without hydrocortisone (PromoCell GmbH, Heidelberg, Germany). The culture medium was supplemented with two different concentrations of adapalene (Galderma, Sophia Antipolis, France): 10^−7 M and 10^−6 M. The culture medium alone served as control medium. […]
(§3) The labeling intensity was quantified according to a semi-quantitative scale: none (0), weak (1), medium (2) and strong (3). For each slide, the labeling intensity was determined using a mean of three fields. […] The reading was performed by two independent investigators.
(§4) All the results are expressed as mean +/−SEM. The statistical significance of differences from the values (by comparison to the control medium) was determined by means of the paired Wilcoxon test. […]

For the next assay, the target named is T2, RARβ (Homo sapiens, UniProt P10826).
T2 sequence (P10826 1-455): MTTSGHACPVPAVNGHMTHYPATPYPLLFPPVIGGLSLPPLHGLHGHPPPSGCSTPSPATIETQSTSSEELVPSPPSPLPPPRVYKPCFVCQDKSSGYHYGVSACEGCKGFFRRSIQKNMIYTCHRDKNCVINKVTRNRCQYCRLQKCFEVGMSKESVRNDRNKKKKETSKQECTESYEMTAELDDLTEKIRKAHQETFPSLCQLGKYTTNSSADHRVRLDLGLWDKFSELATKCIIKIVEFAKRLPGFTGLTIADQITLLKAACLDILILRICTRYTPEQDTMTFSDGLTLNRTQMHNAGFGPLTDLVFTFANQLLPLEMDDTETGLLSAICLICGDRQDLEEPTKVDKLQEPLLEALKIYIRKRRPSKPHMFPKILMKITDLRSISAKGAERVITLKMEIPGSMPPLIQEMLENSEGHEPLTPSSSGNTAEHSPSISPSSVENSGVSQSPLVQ
The note with it: background statement; cited from earlier work.

Assay [2] has as its system polymorphonuclear neutrophils. The conditions noted are these: background statement; cited from earlier work.
The subject of assay [3] is superficial inflammatory lesions. The note with it: clinically; Millikan, Int. J. Dermatol. 2000; cited from earlier work.
For another assay, the system named is free radicals. The note with it: background statement; cited from earlier work.
Assay [4] has as its system IL-10. The experiment in a line: IL-10 expression in healthy human skin explants, immunohistochemistry. The class given is cell-based. The conditions noted are these: 24 hours. On the procedure: (§5) Healthy human skin: fragments of healthy skin originating from 8 healthy donors were obtained from a mammary plasty (plastic surgery) or a foreskin (infant surgery).
(§6) Fragments (4 mm in diameter) originating from biopsies of inflammatory skin, considered to be an inflammatory model, and of healthy skin, were incubated at 37° C. in a humid atmosphere and in the presence of 5% CO2 for 24 hours in KGM culture medium without hydrocortisone (PromoCell GmbH, Heidelberg, Germany). The culture medium was supplemented with two different concentrations of adapalene (Galderma, Sophia Antipolis, France): 10^−7 M and 10^−6 M. The culture medium alone served as control medium.
(§7) After incubation, the explants were removed from the culture medium and were then frozen in liquid nitrogen for the immunohistochemical study. The culture supernatants were stored at −80° C. for subsequent measurement of protein secretion, by an ELISA assay technique. […]
as §3, §4

In assay [5] the test system is IL-10. The experiment in a line: IL-10 expression in acneic skin explants, immunohistochemistry. It is filed as cell-based, human. The conditions noted are these: 24 hours, control medium 1.9 (+/−0.4).
Excerpt: as §1, §2, §3, §4

Assay [6] deals with IL-10. Nature of the assay: IL-10 secretion in culture supernatants of acneic skin explants, ELISA. The class given is cell-based, human. The note with it: 24 hours, control medium 5.7 pg/ml (+/−7.1).
Excerpt: as §1, §2
(§8) The concentrations of IL-10 were measured in the culture supernatants using a solid-phase ELISA (Enzyme Linked ImmunoSorbent Assay) sandwich kit, obtained from BioSource (International Inc, Ca, USA).
(§9) The slides were read at 450 nm using an Emax reader (Molecular Devices, CA, USA). […]
as §4

The next assay concerns lipoxygenase pathway. The note with it: background statement; cited from earlier work.
Assay [7] concerns CD1d. Nature of the assay: CD1d expression in healthy human skin explants, immunohistochemistry. The note with it: 24 hours, versus control medium. It is filed as cell-based. The method, then: as §5, §6, §7, §3, §4
Assay [8] deals with IL-10. The experiment in a line: IL-10 secretion in culture supernatants of healthy human skin explants, ELISA. The note with it: 24 hours, control medium 17.8 pg/ml. The class given is cell-based. The method, then:
as §5, §6
After incubation, the explants were removed from the culture medium and were then frozen in liquid nitrogen for the immunohistochemical study. […]
as §8, §9, §4

The subject of assay [9] is cellular retinoic acid binding proteins. The note with it: background statement; cited from earlier work.

Each structure is given as a SMILES string.

Turning to `COc1ccc(-c2ccc3cc(C(=O)O)ccc3c2)cc1C12CC3CC(CC(C3)C1)C2` [adapalene, 6-[3-(1-adamantyl)-4-methoxyphenyl]-2-naphthoic acid], the “binding to RARγ” value at RARγ is on record as “binds selectively”. Besides, the “production of leukotrienes via the lipoxygenase pathway” value with leukotrienes is reported as “inhibits”. Further, the “expression of CD1d (labeling intensity, scale 0-3, mean +/−SEM)” value in the assay on CD1d [1] (10^−6 M adapalene) and with CD1d [1] (10^−7 M adapalene) was 1.5 (+/−0.5) each time. For the same molecule, the “binding to RARβ” value on RARβ was “binds selectively”. Besides, the “chemotaxis of polymorphonuclear neutrophils” value in [2] is recorded as “inhibits”. Also, the “clinical activity on superficial inflammatory lesions” value in [3] is given as “exhibits an activity on superficial inflammatory lesions”. For the same molecule, in the assay on free radicals, the “production of free radicals” value was “inhibits”. The “inhibitory effect on the expression of IL-10” value in the assay on IL-10 [4] (10^−6 M adapalene, versus control medium, p=0.016) is “significant”. Besides, the “expression of IL-10 in the epidermis (labeling intensity)” value in the assay on IL-10 [4] (10^−7 M and 10^−6 M adapalene, dose-dependent) is “significantly decreases”. Also, the “intensity of IL-10 expression (scale 0-3, mean +/−SEM)” value in the assay on IL-10 [5] (10^−6 M adapalene, p=0.0199) is given as 0.6 (+/−0.2); in the assay on IL-10 [5] (10^−7 M adapalene, p=0.024), 0.9 (+/−0.2). Moreover, the figures for the “IL-10 level in supernatants” value in the assay with IL-10 [6] (10^−6 M adapalene) and with IL-10 [6] (10^−7 M adapalene) were 4.0 pg/mL and 6.1 pg/mL, respectively. In the assay on lipoxygenase pathway, the “oxidative metabolism of arachidonic acid via the lipoxygenase pathway” value is “inhibits”. In addition, the “expression of CD1d in the epidermis (labeling intensity)” value with CD1d [7] (10^−6 M adapalene, p=0.035) is given as “significantly decreases”; in the assay on CD1d [7] (10^−7 M adapalene, p=0.023), “significantly decreases”. For the same molecule, the figures for the “secretion of IL-10 in supernatants” value with IL-10 [8] (10^−6 M adapalene) and in the assay on IL-10 [8] (10^−7 M adapalene) were “No modulation” and “increases the secretion of IL-10”, respectively. For the same molecule, in assay [9], the “binding to cellular retinoic acid binding proteins” value is listed as “does not, on the other hand, bind”.
